Source: patent publication US8039455B2, “Macrocyclic compounds useful as BACE inhibitors” (Novartis AG, priority 2005, dated 2011)

Target: human BACE (Homo sapiens, UniProt P56817)
Test: Test 1: Inhibition of Human BACE
Assay type: biochemical
From the text: Test 1: Inhibition of Human BACE

Chain of human BACE (P56817 46-457 limits assumed): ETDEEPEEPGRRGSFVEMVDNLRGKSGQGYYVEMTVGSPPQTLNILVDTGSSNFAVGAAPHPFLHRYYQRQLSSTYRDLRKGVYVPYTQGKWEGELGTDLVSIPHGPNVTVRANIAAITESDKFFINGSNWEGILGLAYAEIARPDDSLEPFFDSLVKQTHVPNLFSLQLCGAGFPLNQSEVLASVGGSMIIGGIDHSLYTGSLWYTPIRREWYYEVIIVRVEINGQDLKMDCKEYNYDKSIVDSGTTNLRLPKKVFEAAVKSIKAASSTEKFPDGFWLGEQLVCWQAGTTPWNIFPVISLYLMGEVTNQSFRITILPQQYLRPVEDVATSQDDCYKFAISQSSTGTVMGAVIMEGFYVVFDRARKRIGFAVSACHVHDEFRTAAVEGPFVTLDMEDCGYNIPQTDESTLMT

IC50: 250 nM
SMILES: CC(=O)c1cc2cc(c1)C(=O)N[C@H]([C@H](O)CNC1(c3cccc(C(C)C)c3)CC1)Cc1cccc(c1)CCCCO2 [Example 5, (S)-18-Acetyl-4-{(R)-1-hydroxy-2-[1-(3-isopropyl-phenyl)-cyclopropylamino]-ethyl}-15-oxa-3-aza-tricyclo[14.3.1.1*6,10*]henicosa-1(20),6,8,10(21),16,18-hexaen-2-one]
